These are literature values, as cited in paper PMC10537368, “Design, Synthesis, and Biological Evaluation of Novel 3-Cyanopyridone/Pyrazoline Hybrids as Potential Apoptotic Antiproliferative Agents Targeting EGFR/BRAF^V600E Inhibitory Pathways” (Molecules, 2023).

The structures appear in SMILES notation. pIC50: −log10 of the molar value. Like-named read-outs stand apart in the source and are kept apart here.

The test system of data set [1] is Panc-1 cancer. More on the design: method as in PMID 36526595. To be noted: read-out: IC50 against Panc-1 cancer; cited from earlier work.
For data set [2], the system named is A-549 cancer. More on the design: method as in PMID 37240450. To be noted: read-out: IC50 against A-549 cancer; cited from earlier work.
Data set [3] has as its target BRAF^V600E (Homo sapiens, UniProt P15056, V600E). As to conditions: cited from earlier work.
Data set [4] has as its target EGFR (Homo sapiens, UniProt P00533). As to conditions: read-out: EGFR inhibition IC50; cited from earlier work.

Sequence of BRAF^V600E (P15056 whole entry V600E): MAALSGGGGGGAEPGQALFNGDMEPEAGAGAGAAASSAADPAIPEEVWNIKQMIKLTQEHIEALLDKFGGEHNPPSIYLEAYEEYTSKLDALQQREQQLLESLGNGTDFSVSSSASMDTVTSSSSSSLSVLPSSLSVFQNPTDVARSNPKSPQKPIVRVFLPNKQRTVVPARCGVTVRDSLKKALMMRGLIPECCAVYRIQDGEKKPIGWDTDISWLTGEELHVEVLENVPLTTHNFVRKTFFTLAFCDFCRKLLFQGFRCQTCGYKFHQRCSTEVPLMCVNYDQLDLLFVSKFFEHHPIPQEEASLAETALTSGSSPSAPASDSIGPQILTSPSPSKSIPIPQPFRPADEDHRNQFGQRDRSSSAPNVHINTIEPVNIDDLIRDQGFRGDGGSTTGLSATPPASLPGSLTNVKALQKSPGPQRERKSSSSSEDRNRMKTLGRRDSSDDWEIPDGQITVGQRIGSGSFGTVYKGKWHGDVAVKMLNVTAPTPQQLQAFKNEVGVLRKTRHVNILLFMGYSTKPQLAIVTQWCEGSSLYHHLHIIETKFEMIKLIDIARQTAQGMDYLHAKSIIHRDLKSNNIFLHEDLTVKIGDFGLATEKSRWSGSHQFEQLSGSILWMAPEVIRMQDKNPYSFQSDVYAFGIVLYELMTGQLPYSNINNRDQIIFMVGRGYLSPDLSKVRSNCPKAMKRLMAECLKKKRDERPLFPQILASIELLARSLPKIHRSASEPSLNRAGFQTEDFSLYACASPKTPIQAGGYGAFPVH
Sequence of EGFR (P00533 25-1210): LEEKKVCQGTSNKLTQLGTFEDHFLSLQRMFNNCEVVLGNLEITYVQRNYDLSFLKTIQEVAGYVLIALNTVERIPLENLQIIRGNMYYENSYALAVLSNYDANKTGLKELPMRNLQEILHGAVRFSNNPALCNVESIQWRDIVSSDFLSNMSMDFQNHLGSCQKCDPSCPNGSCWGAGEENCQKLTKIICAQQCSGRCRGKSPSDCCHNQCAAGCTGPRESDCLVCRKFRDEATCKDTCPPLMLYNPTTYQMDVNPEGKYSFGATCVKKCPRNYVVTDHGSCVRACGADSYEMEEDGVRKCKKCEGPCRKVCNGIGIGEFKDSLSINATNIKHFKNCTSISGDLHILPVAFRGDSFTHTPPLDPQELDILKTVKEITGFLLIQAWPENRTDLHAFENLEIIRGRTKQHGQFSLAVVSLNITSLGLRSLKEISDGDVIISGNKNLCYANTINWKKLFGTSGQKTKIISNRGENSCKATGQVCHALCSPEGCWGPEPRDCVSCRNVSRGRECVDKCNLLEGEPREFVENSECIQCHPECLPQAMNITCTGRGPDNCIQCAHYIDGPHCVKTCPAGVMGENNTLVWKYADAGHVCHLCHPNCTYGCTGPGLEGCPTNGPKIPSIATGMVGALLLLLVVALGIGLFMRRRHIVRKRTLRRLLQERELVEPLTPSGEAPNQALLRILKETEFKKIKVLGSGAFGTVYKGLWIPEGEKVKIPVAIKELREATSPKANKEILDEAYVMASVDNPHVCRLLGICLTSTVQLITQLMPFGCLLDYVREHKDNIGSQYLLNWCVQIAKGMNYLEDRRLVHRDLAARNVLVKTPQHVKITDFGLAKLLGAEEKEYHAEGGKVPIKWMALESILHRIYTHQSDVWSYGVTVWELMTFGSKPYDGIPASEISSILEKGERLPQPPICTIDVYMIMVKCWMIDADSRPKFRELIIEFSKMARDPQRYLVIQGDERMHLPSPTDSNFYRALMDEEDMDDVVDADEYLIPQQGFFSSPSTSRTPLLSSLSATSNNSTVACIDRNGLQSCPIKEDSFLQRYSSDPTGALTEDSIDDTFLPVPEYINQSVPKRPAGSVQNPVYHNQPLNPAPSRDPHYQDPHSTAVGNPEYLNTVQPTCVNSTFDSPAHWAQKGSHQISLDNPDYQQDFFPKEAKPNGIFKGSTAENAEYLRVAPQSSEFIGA

As to `COc1cccc2c1C(=O)c1c(O)c3c(c(O)c1C2=O)C[C@@](O)(C(=O)CO)C[C@@H]3O[C@H]1C[C@H](N)[C@H](O)[C@H](C)O1` [doxorubicin], the pIC50 was 6.00 in data set [1] and 5.85 in data set [2].
`COc1ccc(/C=C/C(=O)c2ccc(NC(=O)Cn3c(-c4ccc(OC)c(OC)c4)cc(-c4ccc(OC)c(OC)c4)c(C#N)c3=O)cc2)cc1OC` [Compound I]: the results for the pIC50 in data set [1], in data set [3] (read-out: BRAF^V600E inhibition IC50) and in data set [4] were 6.10, 7.19 and 7.05, respectively.
As for `COc1ccc(C2CC(c3ccc(OCC(=O)Nc4ccc(C5=NNC(c6ccc(OC)c(OC)c6)C5)cc4)cc3)=NN2)cc1` (stereo not shown) [Compound II], the pIC50 in data set [2] is 6.00; in data set [3] (read-out: BRAF^V600E IC50) it was 7.03.
